According to patent US20220396577A1, “NOVEL SUBSTITUTED 1,3-8-TRIAZASPIRO[4,5] DECANE-2,4-DIONE COMPOUNDS AS INDOLEAMINE 2,3-DIOXYGENASE (IDO) AND/OR TRYPTOPHAN 2,3-DIOXYGENASE (TDO) INHIBITORS” (Merck Sharp & Dohme LLC, priority 2019, published 2022):

Legend:
CDK5/P25 = CDK5/P25 (Homo sapiens, UniProt Q00535); assay: Off-target kinase panel, ZLYTE: CDK5/P25; type: biochemical; details: read-out: Estimated IC50 (uM) CDK5/P25
Description: The activity data was obtained in a panel of 265 and 264 for compounds 1-1 and CC-1, respectively, using the ZLYTE and ADAPTA assay methods indicated in the table below.
The ZLYTE biochemical assay employs a fluorescence-based, coupled-enzyme format and is based on the differential sensitivity of phosphorylated and non-phosphorylated peptides to proteolytic cleavage. The peptide substrate is labeled with two fluorophores—one at each end—that make up a Fluorescence Resonance Energy Transfer (FRET) pair.
In the primary reaction, the kinase transfers the gamma-phosphate of ATP to a single tyrosine, serine or threonine residue in a synthetic FRET-peptide. In the secondary reaction, a site-specific protease recognizes and cleaves non-phosphorylated FRET-peptides. Phosphorylation of FRET-peptides suppresses cleavage by the Development Reagent. […] A ratiometric method, which calculates the ratio (the Emission Ratio) of donor emission to acceptor emission after excitation of the donor fluorophore at 400 nm, is used to quantitate reaction progress, as shown in the equation below. […]
Both cleaved and uncleaved FRET-peptides contribute to the fluorescence signals and therefore to the Emission Ratio. The extent of phosphorylation of the FRET-peptide can be calculated from the Emission Ratio. […]
10. Read on fluorescence plate reader and analyze the data.

IDO1 = IDO1 (Homo sapiens, UniProt P14902); assay: IDO1 Cellular Assay in HeLa Cells Stimulated with IFNγ (B); type: cell-based; set-up: endogenous in cells; host or cells: HeLa cells stimulated with IFNγ; details: about 48 h, first value of cell, read-out: IDO hela (B) cell IC50
Chain of IDO1 (P14902 whole entry): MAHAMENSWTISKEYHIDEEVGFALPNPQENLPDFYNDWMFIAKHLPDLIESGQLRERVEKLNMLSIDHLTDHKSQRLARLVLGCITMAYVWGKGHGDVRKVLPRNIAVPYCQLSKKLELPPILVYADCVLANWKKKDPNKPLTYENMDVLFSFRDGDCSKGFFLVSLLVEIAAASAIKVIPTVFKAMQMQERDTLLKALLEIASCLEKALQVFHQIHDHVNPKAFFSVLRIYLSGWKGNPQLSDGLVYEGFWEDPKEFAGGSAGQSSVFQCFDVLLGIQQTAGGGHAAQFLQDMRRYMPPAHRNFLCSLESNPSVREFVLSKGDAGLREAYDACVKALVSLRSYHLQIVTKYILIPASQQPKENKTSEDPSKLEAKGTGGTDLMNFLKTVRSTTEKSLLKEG
Experimental: HeLa cells were cultured in complete HeLa culture medium (90% EMEM, 10% heat-inactivated fetal bovine serum) and expanded to about 1×10^9 cells. The cells were then collected and frozen down at 1×10^7 cells/vial in 1 mL frozen medium (90% complete HeLa culture medium, 10% DMSO).
Compounds to be tested were serially diluted in ten 3-fold steps in DMSO starting from 10 mM DMSO stocks in Echo low volume plate(s). Compound dilutions or DMSO alone were then dispensed from the dilution plate(s) into Greiner black 384-well assay plate(s) (catalog #781086, 50 nL/well) using an Echo 550 acoustic liquid handler (Labcyte).
Frozen HeLa cells were thawed and transferred into HeLa assay medium (99% complete HeLa culture medium, 1% Pen/Strep) with 20 mL medium/vial of cells. […] The cells were then counted and adjusted to a density of 2×10^5 cells/mL in HeLa assay medium. […]
HeLa cells with and without IFNγ were dispensed to the respective wells of 384-well assay plates containing the compounds. […] The resulting fluorescence was measured in a Spectramax plate reader (Molecular Devices) with a 400 nm excitation filter and a 510 nm emission filter.
The fluorescence intensity of each well was corrected for the background observed in wells with non-IFNγ-treated cells and was expressed as a fraction of the intensity observed in wells of IFNγ-treated cells and DMSO only. […]

Chain of CDK5/P25 (Q00535 whole entry): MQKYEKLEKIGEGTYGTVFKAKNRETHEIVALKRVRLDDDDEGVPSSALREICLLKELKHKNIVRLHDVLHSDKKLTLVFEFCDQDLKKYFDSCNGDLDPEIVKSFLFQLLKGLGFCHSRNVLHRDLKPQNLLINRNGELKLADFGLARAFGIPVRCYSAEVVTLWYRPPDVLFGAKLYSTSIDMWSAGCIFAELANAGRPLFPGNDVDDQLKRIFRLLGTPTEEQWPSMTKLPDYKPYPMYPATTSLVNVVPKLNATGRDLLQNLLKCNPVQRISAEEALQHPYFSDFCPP
Chain of CDK5/P25 (Q15078 99-307 partner limits assumed): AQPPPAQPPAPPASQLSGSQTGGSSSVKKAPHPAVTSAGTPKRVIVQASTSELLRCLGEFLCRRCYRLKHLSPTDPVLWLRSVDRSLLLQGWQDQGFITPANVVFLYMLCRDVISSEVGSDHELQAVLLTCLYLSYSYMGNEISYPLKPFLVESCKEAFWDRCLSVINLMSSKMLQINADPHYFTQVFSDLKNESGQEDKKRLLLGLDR

| IC50 (CDK5/P25) | IC50 (IDO1) | Structure (SMILES) |
| --- | --- | --- |
| > 2 µM | 77 nM | C[C@@H]1CN(c2cc(Br)cc3[nH]ncc23)CC[C@]12NC(=O)NC2=O (single isomer, unassigned) [Compound 1-1] |
| 1.2 µM | 97 nM | O=C1NC(=O)C2(CCN(c3cc(Cl)cc4[nH]ncc34)CC2)N1 [CC-1] |
